Results from US11541029B2, “High penetration compositions and their applications” (Techfields Pharma Co., Ltd., priority 2008, dated 2023).

Key:
[1] = tested on: rats given sterilized E. coli suspension as a pyrogen; test: Antipyretic activity of ibuprofen and its HPC (Study A); assay type: in vivo; conditions: 20 mg/kg, oral administration
[2] = tested on: carrageenin-induced swelling of rat hind paw; test: Anti-inflammatory activity, carrageenin paw swelling; assay type: in vivo, rats; conditions: transdermal or oral administrations
[3] = tested on: GK rats (SLAC/GK, type 2 diabetes); test: Anti-diabetes (type II) activity of HPCs of NSAIAs in GK rats; assay type: in vivo; conditions: 30 mg/kg transdermally once per day, no fasting
Experimental: (§1) A HPC in the present disclosure lowered blood glucose levels in rat models (SLAC/GK, type 2 diabetes, n=7). 30 mg/kg of 8% diethylaminoethyl acetylsalicylate.HCl salt (P-1, in 25% ethanol); 4-acetamidophenyl salicylyldimethylaminobutyrate.HCl (P-6, in 25% ethanol), diethylaminoethyl 5-(2,4-difluorophenyl)acetylsalicylate.5-(2,4-difluorophenyl)acetylsalicylic acid salt (P-8, in 25% ethanol), diethylaminoethyl salicylsalicylate.HCl salt (P-9, in 25% ethanol), diethylaminoethyl salicylate.AcOH(P-10, in 25% ethanol), diethylaminoethyl 5-acetamido-acetylsalicylate.HCl(P-58, in 25% ethanol), diethylaminoethyl acetylsalicylsalicylate. HCl salt (P-59, in 25% ethanol), diethylaminoethyl acetylsalicylsalicylsalicylate. HCl salt (P-60, in 25% ethanol) were administered transdermally to the backs (6 cm^2, fur was shaved) of GK rats (SLAC/GK, 14-16 weeks old) and normal SD rats (SLAC/SD, 14-16 weeks old) once per day (at 8 am) for 6 weeks.
(§2) The blood glucose levels were measured once every 3 days at 4:30 pm (no fasting) from the third week to the sixth week as shown in Table 10a and 10b. […] Moreover, the blood glucose levels of the rats stayed at normal level (6-9 mmol/L, no fasting) after the treatment was stopped for 40 days.

normal SD rats (SLAC/SD) = test: Blood glucose in normal SD rats treated with HPCs of NSAIAs; assay type: in vivo; conditions: 30 mg/kg transdermally once per day, no fasting
Experimental: as §1, §2

SLAC/DB/DB obese mice = test: Blood glucose and blood lipid levels in DB/DB mice; assay type: in vivo; conditions: 30 mg/kg transdermally once per day
Experimental: HPCs in the present disclosure lowered blood glucose levels and blood lipid levels in mice models (SLAC/DB/DB, obese mice, n=7). 30 mg/kg of 8% diethylaminoethyl acetylsalicylate.HCl salt (P-1, in 25% ethanol); 4-acetamidophenyl salicylyldimethylaminobutyrate.HCl (P-6, in 25% ethanol), diethylaminoethyl 5-(2,4-difluorophenyl)acetylsalicylate.5-(2,4-difluorophenyl)acetylsalicylic acid salt (P-8, in 25% ethanol), diethylaminoethyl salicylsalicylate.HCl salt (P-9, in 25% ethanol), diethylaminoethyl salicylate.AcOH(P-10, in 25% ethanol), diethylaminoethyl 5-acetamido-acetylsalicylate.HCl(P-58, in 25% ethanol), diethylaminoethyl acetylsalicylsalicylate.HCl salt (P-59, in 25% ethanol), diethylaminoethyl acetylsalicylsalicylsalicylate.HCl salt (P-60, in 25% ethanol) were administered transdermally to the backs (4 cm^2,fur was shaved) of DB/DB mice(SLAC/DB/DB, 10-12 weeks old) once per day (at 8 am) for 5 weeks. The blood glucose levels were measured once per week and blood lipid levels were measured once every other week.

[4] = tested on: SLAC:NOD-IDDM, type 1 diabetes; test: Anti-diabetes (type I) activity of HPCs of NSAIAs; assay type: in vivo, mice
Text: 10% aqueous solution of diethylaminoethyl acetylsalicylate.acetylsalicylic acid salt (P-1, […]); 4-acetamidophenyl salicylyldimethylaminobutyrate. HCl (P-6), diethylaminoethyl 5-(2,4-difluorophenyl)acetylsalicylate.5-(2,4-difluorophenyl)acetylsalicylic acid salt (P-8), diethylaminoethyl salicylsalicylate.AcOH(P-9), diethylaminoethyl 5-acetamido-acetylsalicylate. HCl (P-58), diethylaminoethyl 2-(ρ-isobutylphenyl) propionate.citric acid (P-59), diethylaminoethyl acetylsalicylsalicylate. acetylsalicylsalicylsalicylic acid salt (P-60) (equal to of 20 mg/kg of NSAIAs) were administered transdermally to the shaved back (about 1.5 cm^2) of mice twice per day (at 8 am and 5 pm) for 7 weeks.
The blood glucose levels were measured once every 3 days at 4:30 pm (no fasting) from the fourth week to the seventh week as shown in Table 11.

[5] = tested on: autologous blood clots injected in femoral vein (pulmonary thrombus); test: Anti-thrombosis activity, autologous blood clots in rabbits; assay type: in vivo, Chinese White rabbits; conditions: 50 mg/kg topically to the back twice per day, 5 days
Experimental: Eighteen Chinese White rabbits weighing between 3.0 and 3.5 kg (aged 6-7 months) were selected and divided into three groups (control, P-1 and […] groups, n=6). One hour before the experiment, thrombi were made by aspirating venous blood (1 ml) into a sterilized bottle to clot. To avoid fragmentation and slow lysis, the autologous blood clots were stabilized in temperature-controlled (70° C.) distilled water for 10 min. After anesthesia, the femoral veins were exposed and distally isolated, and autologous blood clots (0.05 g/kg) were injected through an indwelling catheter (20GA), which had been placed in the femoral vein isolated earlier. 50 mg/kg of diethylaminoethyl acetylsalicylate.HCl salt (P-1, 10% in 25% ethanol) and diethylaminoethyl acetylsalicylsalicylate.HCl salt (P-59, 10% in 25% ethanol) were topically applied to the back of the rabbits twice per day. After 5 days, rabbits were euthanized with an excessive intravenous injection of sodium amobarbital (60 mg/kg). The lungs and hearts were isolated to observe whether thrombi were present in the pulmonary arteries. The lungs were immersed in 10% formalin for 24 h. Consecutive transverse sections along the obstructed pulmonary arteries were paraffin-embedded and stained with hematoxylin-eosine. […]

spinal cord injuries = test: Spinal cord injury in paralyzed rats; assay type: in vivo; conditions: 5 mg in 0.2 ml water on area of injury twice per day for 1 months, n=10
Experimental: A paralyzed rat was produced by anesthetizing with chloral hydrate first, and then hitting at its spinal cord to induce spinal cord injuries. On the next day, 20 completely paralyzed rats were divided into 2 groups. […] In group B (n=10), 5 mg of diethylaminopropyl acetylsalicylate.HCl in 0.2 ml of pure water was applied to the area of injury (˜2×3 cm^2) twice per day for 1 months. After the treatment, all rats (10/10) in group A were still completely paralyzed. While all rats (10/10) in group B could walk. 4 Rats of group B acted completely normal and the other 6 rats walked more slowly and less confidently than before their injury.

Tg2576 mouse model of AD = test: Anti-Alzheimer disease activity in Tg2576 mice; assay type: in vivo
Text: For many years, efforts have been focused on the development of inhibitors of β-amyloid (Aβ) formation and its related neurotoxic effects. To determine the effect of diethylaminopropyl acetylsalicylate. HCl on in vivo AD accumulation, we administered transdermally diethylaminopropyl acetylsalicylate. […] Three-month-old female transgenic mice overexpressing the human APP gene containing the Swedish mutation that causes familial AD (Tg2576 line) were used for testing the effects of diethylaminopropyl acetylsalicylate.HCl in vivo. 20 Tg2576 mice were divided into 2 groups. […] In group B (n=10), 50 mg/kg of diethylaminopropyl acetylsalicylate.HCl in 0.2 ml of pure water was applied to the back of mouse once per day for 2 months. Then the animals were killed and their brains were removed for analysis. For Aβ analysis, hemibrains were dounce homogenized in 70% formic acid at 150 mg tissue/ml formic acid solution. Homogenates were transferred to a chilled ultracentrifuge and were then spun at 100,000 g for 1 h at 4° C. Supernatants were collected and neutralized with formic acid neutralization buffer (1.0 M Tris base, 0.5 M NaH2PO4, and 0.05% NaN3; 1:20) for Aβ quantitation by ELISA. Aβ40 and Aβ42 were assayed by ELISA. Four individual experiments were performed. To compare across studies, the values for an individual study were normalized using the values obtained for the control animals included in each study. Values represent the mean±SE for the n number shown, after normalizing.
To determine if the transdermal administration of diethylaminopropyl acetylsalicylate.HCl has beneficial functional consequences, we tested 2 months of diethylaminopropyl acetylsalicylate.HCl (50 mg/kg) in the transgenic model for Alzheimer's disease in which mice develop learning deficits as amyloid accumulates. […] In the diethylaminopropyl acetylsalicylate.HCl (50 mg/kg) treated group, all mice performed superbly on the radial-arm water-maze test of working memory and untreated transgenic mice show memory deficits. […] This therapeutic approach can thus prevent and treat Alzheimer's dementia.

CCN(CC)CCOC(=O)C(C)c1ccc(CC(C)C)cc1 (centres unmarked) [HPC of ibuprofen, diethylaminoethyl 2-(ρ-isobutylphenyl) propionate]
antipyretic effect [1]: almost the same effect as 100 mg/kg of ibuprofen | anti-inflammatory activities, times stronger than parent drug ibuprofen [2]: more than 5 times

CCN(CC)CCOC(=O)c1ccccc1OC(=O)c1ccccc1OC(C)=O.Cl [P-59, diethylaminoethyl acetylsalicylsalicylate. HCl salt]
blood glucose, Average (Week 2-5) [3]: 8.2 ± 2.7 mmol/L | blood glucose, Day 1 [3]: 16.8 ± 3.0 mmol/L | blood glucose, Average (Week 2-5) (normal SD rats (SLAC/SD)): 5.8 ± 1.0 mmol/L | blood glucose, Day 1 (normal SD rats (SLAC/SD)): 5.7 ± 1.3 mmol/L | Cholesterol (total), Day 1 (SLAC/DB/DB obese mice): 6.6 ± 0.4 mmol/L | Cholesterol (total), Week 5 (SLAC/DB/DB obese mice): 4.7 ± 0.4 mmol/L | Triglycerides, Day 1 (SLAC/DB/DB obese mice): 4.6 ± 0.4 mmol/L | Triglycerides, Week 5 (SLAC/DB/DB obese mice): 4.6 ± 0.5 mmol/L | blood glucose, Day 1 (SLAC/DB/DB obese mice): 14.2 ± 2.2 mmol/L | blood glucose, Week 5 (SLAC/DB/DB obese mice): 8.1 ± 2.4 mmol/L | blood glucose, Baseline ([4]; equal to 20 mg/kg of NSAIAs transdermally twice per day for 7 weeks): 19.1 ± 3.2 mmol/L | blood glucose, Average ([4]; fourth week to seventh week, no fasting, equal to 20 mg/kg of NSAIAs transdermally twice per day): 8.9 ± 1.7 mmol/L | lung tissue and vascular walls (histology) [5]: both lung tissue and vascular walls were normal

CCN(CC)CCCOC(=O)c1ccccc1OC(C)=O.Cl [diethylaminopropyl acetylsalicylate.HCl]
rats that acted completely normal after the treatment (spinal cord injuries): 4 | rats that could walk after the treatment (spinal cord injuries): 10/10 | reduction in Aβ42 concentration in the brain (Tg2576 mouse model of AD; 50 mg/kg transdermally once per day for 2 months): 70% | Aβ42 concentration (Tg2576 mouse model of AD; 50 mg/kg transdermally once per day for 2 months, ELISA): 2.3 ± 0.3 pmol/g tissue | cognitive performance, radial-arm water-maze test of working memory (Tg2576 mouse model of AD; 50 mg/kg, 2 months): performed as well as nontransgenic mice
